Data on two compounds can be found in PubChem BioAssay AID504944 (Broad Institute, 2011).

A word on the AC50: it is the concentration giving half of the maximal activity seen.

This test concerns HeLa cytotoxicity, plate reader, 48 h. As to the kind of experiment: toxicity to human HeLa cells – cell-based, 48 h, plate reader, cherry-picks, set 2, cytotoxicity control, dose response (AID 504944).

As for `COC(=O)c1ccc(/C=C(\C#N)c2ccccn2)cc1`, the AC50 was 29 µM. As for `Cc1ccc2nc(-c3ccc4c(c3)OCCO4)cn2c1`, the figure is 22.3 µM.
